# In patent US10668033B2, “Modulators of the prostacyclin (PGI2) receptor useful for the treatment of disorders related thereto” (Arena Pharmaceuticals, Inc., priority 2008, dated 2020):
# Tests used:
# [1] = Dynamic vapor sorption (DVS) hygroscopicity; format: physicochemical; conditions: at 90% relative humidity; listed as Form 1 of the sodium salt of Compound 22
# Description: Hygroscopicity was measured using a dynamic moisture-sorption analyzer, VTI Corporation, SGA-100. The sample was placed as-is in a tared sample holder on the VTI balance. A drying step was run at 40° C. and ˜1% RH for 60 to 120 min. The isotherm conditions are 25° C. with steps of 20% RH from 10% RH up to 90% RH and back to 10% RH. The weight was checked every 2 min. Percent weight change of <0.01% in 20 min or 2 h, whichever occurs first, is required before continuing to the next step.
# [2] = Excipient solubility study
# Description: The solubility of 2-(((1r,4r)-4-(((4-chlorophenyl)(phenyl)carbamoyloxy)methyl)cyclohexyl)methoxy)acetic acid (Compound 22) and sodium 2-(((1r,4r)-4-(((4-chlorophenyl)(phenyl)carbamoyloxy)methyl)cyclohexyl)methoxy)acetate (Compound 22 sodium salt) in various excipients was measured.
# [3] = Excipient compatibility (stability) study; format: physicochemical; conditions: four weeks in a glass vial at 50° C.
# Description: Compound 22 was tested for stability in three of the excipients.
# [4] = Pharmacokinetics in rats after oral administration of Compound 99; format: in vivo, Sprague-Dawley rat; conditions: plasma analyte after 1.25 mg/kg oral dose of Compound 99, male rats
# Description: Blood samples were obtained from 0.100 to 21.0 h post-dose for plasma drug concentration measurements. […] Pharmacokinetic parameters were estimated using non-compartmental pharmacokinetic analysis.
# [5] = Plasma profile in rats after 10 mg/kg oral dose of Compound 22 sodium salt; format: in vivo; conditions: rat, after a 10 mg/kg oral dose of Compound 22 (sodium salt, FIG. 25), male rats
# [6] = system: MCT-induced pulmonary arterial hypertension; assay: Rat monocrotaline (MCT) model of pulmonary arterial hypertension; format: in vivo; conditions: 30 mg/kg oral gavage twice a day for 21 days; 60 mg/kg MCT s.c.; male Wistar rats
# Description: Male Wistar rats (100-150 g at start of study) (Charles River Laboratories, Wilmington, Mass.) were housed two per cage and maintained in a humidity—(40-60%) and temperature—(68-72° F.) controlled facility on a 12 hr:12 hr light/dark cycle (lights on at 6:30 am) with free access to food (Harlan Teklad, Orange Calif., Rodent Diet 8604) and water. Rats were allowed one week of habituation to the animal facility before testing.
# The rat monocrotaline (MCT) model is a standard and well-accepted model of pulmonary arterial hypertension. MCT induces acute pulmonary endothelial damage associated with pulmonary vascular inflammation. […]
# Rats were randomly given a single subcutaneous injection of either 60 mg/kg MCT (Sigma, St. Louis, Mo.) or 0.9% saline (sham) and assigned to receive oral administration of 20% hydroxypropyl beta-cyclodextrin (vehicle) or test compound (30 mg/kg; FIGS. 7 and 8). […] Heart chamber weights were measured on Day 22. […] The ratio of right ventricular (RV) weight to left ventricle plus septum (LV+S) weight (this ratio is indicated as “RV/(LV+S)” in FIGS. 7 and 8) was calculated as an index of the hypertrophic response to the induced pulmonary arterial hypertension and, as such, as an index of a test compound's therapeutic efficacy for pulmonary arterial hypertension.
smiles,measurement,setting,value
"O=C([O-])COC[C@H]1CC[C@H](COC(=O)N(c2ccccc2)c2ccc(Cl)cc2)CC1.[Na+] [Sodium Salt of Compound 22, sodium 2-(((1r,4r)-4-(((4-chlorophenyl)(phenyl)carbamoyloxy)methyl)cyclohexyl)methoxy)acetate]",DVS absorption,[1],less than 0.25%
same,Solubility,[2]; Corn Oil,<100 µg/mL
same,Solubility,[2]; Cremophor RH 40,7820 µg/mL
same,Solubility,[2]; Gelucire 44/14,1610 µg/mL
same,Solubility,[2]; Gelucire 50/13,<10000 µg/mL
same,Solubility,[2]; Imwitor 742,16200 µg/mL
same,Solubility,[2]; Labrasol,12980 µg/mL
same,Solubility,[2]; Lauroglycol 90,260 µg/mL
same,Solubility,[2]; PEG400,4850 µg/mL
same,Solubility,[2]; PEG6000,<10000 µg/mL
same,Solubility,[2]; Safflower oil,<100 µg/mL
same,Solubility,[2]; TPGS 1000,2550 µg/mL
"O=C(O)COC[C@H]1CC[C@H](COC(=O)N(c2ccccc2)c2ccc(Cl)cc2)CC1 [Compound 22, 2-(((1r,4r)-4-(((4-chlorophenyl)(phenyl)carbamoyloxy)methyl)cyclohexyl)methoxy)acetic acid]",stability in solution,[3]; Cremophor RH 40,no observable degradation or API assay loss
same,stability in solution,[3]; Imwitor 742,no observable degradation or API assay loss
same,stability in solution,[3]; TPGS 1000,no observable degradation or API assay loss
same,AUC(0-t),"[4]; Sprague-Dawley, rat",935 ng·h/mL
same,Cmax,"[4]; Sprague-Dawley, rat",214 ng/mL
same,half-life,"[4]; Sprague-Dawley, rat, read-out: terminal phase half-life (T1/2) (converted)",3.51 h
same,time of Cmax,[4],2.67 h
same,Tmax,[5],1.5 h
same,"hypertrophic response, RV/(LV+S)",[6],inhibited the hypertrophic response
